Laboratory results from publication PMC9174938, “1,4-Dihydropyridine as a Promising Scaffold for Novel Antimicrobials Against Helicobacter pylori” (Frontiers in Microbiology, 2022).

target: T1, HsrA (HP1043) (Helicobacter pylori, UniProt O25684); assay: isothermal titration calorimetry; assay type: binding; details: read-out: ITC^1 / Kd
T1 construct: gene HP_1043
T1 sequence (O25684 1-223): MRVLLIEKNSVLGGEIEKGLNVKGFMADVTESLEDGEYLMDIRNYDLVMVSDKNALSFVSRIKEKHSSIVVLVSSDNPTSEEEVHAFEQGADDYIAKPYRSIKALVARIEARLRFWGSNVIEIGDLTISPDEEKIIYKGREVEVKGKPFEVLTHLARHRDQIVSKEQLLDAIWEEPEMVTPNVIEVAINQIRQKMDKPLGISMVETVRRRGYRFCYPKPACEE
Text: isothermal titration calorimetry on HsrA (HP1043)

Structure (SMILES) | Kd [µM]
CC1=C(C(=O)OCc2ccccc2)C(c2cc(Br)cc(Br)c2O)C2=C(CCC(C)(C)C2=O)N1 (stereo not drawn) [HM4] | 4
CC1=C(C(=O)OCc2ccccc2)C(c2cc(Br)cc([N+](=O)[O-])c2O)C2=C(CCC(C)(C)C2=O)N1 (stereo not drawn) [HM6] | 5.4
CC1=C(C(=O)OCC(C)C)C(c2cc([N+](=O)[O-])ccc2O)C2=C(CC(C)(C)CC2=O)N1 (stereo not drawn) [MD1] | 3.5
CC1=C(C(=O)OCC(C)C)C(c2cccc([N+](=O)[O-])c2)C2=C(CC(C)(C)CC2=O)N1 (stereo not drawn) [MD2] | 16
CC1=C(C(=O)OCC(C)C)C(c2cc(Br)ccc2O)C2=C(CC(C)(C)CC2=O)N1 (stereo not drawn) [MD6] | 25
CC1=C(C(=O)OCC(C)C)C(c2cc(Br)cc([N+](=O)[O-])c2O)C2=C(CC(C)(C)CC2=O)N1 (stereo not drawn) [MD7] | 23
